Laboratory results from ChEMBL document CHEMBL1155476, “A vHTS approach for the identification of beta-adrenoceptor ligands” (Bioorg Med Chem Lett, 2010).
≈ marks a conversion by molar mass, not a printed value.

How the values were obtained:
[1] = molecular target: T1, Beta-1 adrenergic receptor (Homo sapiens, UniProt P08588); test: Displacement of [125I]cyanopindolol from human adrenergic beta-1 receptor expressed in CHOK1 cells; format: cell-based, CHO-K1
Target sequence in this assay (P08588 whole entry): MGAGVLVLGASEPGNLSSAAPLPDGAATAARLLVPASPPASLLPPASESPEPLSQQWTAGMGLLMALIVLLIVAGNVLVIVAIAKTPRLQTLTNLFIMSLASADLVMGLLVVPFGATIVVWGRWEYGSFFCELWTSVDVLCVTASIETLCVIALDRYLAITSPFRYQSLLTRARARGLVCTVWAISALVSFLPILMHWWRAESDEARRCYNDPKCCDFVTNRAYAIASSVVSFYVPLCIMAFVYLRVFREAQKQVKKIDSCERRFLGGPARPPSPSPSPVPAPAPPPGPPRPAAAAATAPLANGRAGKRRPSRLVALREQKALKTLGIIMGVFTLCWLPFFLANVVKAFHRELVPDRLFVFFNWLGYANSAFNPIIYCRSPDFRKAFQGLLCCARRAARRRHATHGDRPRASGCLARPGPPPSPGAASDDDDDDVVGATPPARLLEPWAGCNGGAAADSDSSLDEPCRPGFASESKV

[2] = molecular target: T2, Beta-2 adrenergic receptor (Homo sapiens, UniProt P07550); test: biochemical
Description: Displacement of [125I]cyanopindolol from human adrenergic beta2 receptor expressed in CHOK1 cells

[3] = molecular target: T3, Beta-3 adrenergic receptor (Homo sapiens, UniProt P13945); test: biochemical
Description: Displacement of [125I]cyanopindolol from human adrenergic beta3 receptor expressed in CHOK1 cells

[4] = molecular target: T2, Beta-2 adrenergic receptor; test: Antagonist activity at human adrenergic beta2 receptor expressed in CHOK1 cells assessed as inhibition of cAMP accumulation by HTRF assay; format: functional, cell-based, CHO-K1
[5] = molecular target: T1, Beta-1 adrenergic receptor; test: Agonist activity at human adrenergic beta-1 receptor expressed in CHOK1 cells assessed as cAMP accumulation by HTRF assay; format: functional, cell-based, CHO-K1
Target sequence in this assay (P08588 whole entry): as above

[6] = molecular target: T1, Beta-1 adrenergic receptor; test: Intrinsic activity at human adrenergic beta-1 receptor expressed in CHOK1 cells assessed as cAMP accumulation by HTRF assay relative to isoproterenol; format: functional, cell-based; conditions: CHO-K1
Target sequence in this assay (P08588 whole entry, looked up): as the sequence (P08588 whole entry) above

[7] = molecular target: T3, Beta-3 adrenergic receptor
Description: Agonist activity at human adrenergic beta3 receptor expressed in CHOK1 cells assessed as cAMP accumulation by HTRF assay

[8] = Solubility at pH 4; format: physicochemical; conditions: buffer
[9] = Solubility at pH 6; format: physicochemical; conditions: buffer
[10] = Permeability by PAMPA method; format: ADME
[11] = Cytotoxicity against human PBMC cells; format: cell-based; conditions: read-out: ED50 (the source's name)
[12] = Cytotoxicity against human HepG2 cells; format: cell-based; conditions: read-out: ED50 (the source's name)
[13] = Cmax in Wistar rat at 10 mg/kg, po; format: ADME, organism-based; set-up: dose 10 mg/kg, route oral; conditions: in vivo
[14] = Half life in Wistar rat at 10 mg/kg, po; format: ADME, organism-based; set-up: dose 10 mg/kg, route oral; conditions: in vivo
[15] = molecular target: T3, Beta-3 adrenergic receptor; test: Antagonist activity at human adrenergic beta3 receptor expressed in CHOK1 cells assessed as inhibition of cAMP accumulation by HTRF assay; format: functional, cell-based, CHO-K1
[16] = molecular target: T1, Beta-1 adrenergic receptor; test: Antagonist activity at human adrenergic beta-1 receptor expressed in CHOK1 cells assessed as inhibition of cAMP accumulation by HTRF assay; format: functional, cell-based, CHO-K1
Target sequence in this assay (P08588 whole entry): as above

T2 sequence (P07550 whole entry): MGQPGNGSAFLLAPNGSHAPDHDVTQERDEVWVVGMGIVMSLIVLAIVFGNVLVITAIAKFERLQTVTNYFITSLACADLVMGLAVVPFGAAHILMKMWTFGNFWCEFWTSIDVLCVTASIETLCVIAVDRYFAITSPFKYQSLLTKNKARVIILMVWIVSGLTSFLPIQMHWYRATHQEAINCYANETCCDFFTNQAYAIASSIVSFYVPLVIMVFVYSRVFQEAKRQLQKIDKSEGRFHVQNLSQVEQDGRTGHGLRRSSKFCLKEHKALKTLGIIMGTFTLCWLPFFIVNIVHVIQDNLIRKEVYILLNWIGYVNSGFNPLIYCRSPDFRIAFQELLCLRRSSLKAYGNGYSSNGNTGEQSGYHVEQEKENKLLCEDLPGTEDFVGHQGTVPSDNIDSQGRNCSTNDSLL
T3 sequence (P13945 whole entry): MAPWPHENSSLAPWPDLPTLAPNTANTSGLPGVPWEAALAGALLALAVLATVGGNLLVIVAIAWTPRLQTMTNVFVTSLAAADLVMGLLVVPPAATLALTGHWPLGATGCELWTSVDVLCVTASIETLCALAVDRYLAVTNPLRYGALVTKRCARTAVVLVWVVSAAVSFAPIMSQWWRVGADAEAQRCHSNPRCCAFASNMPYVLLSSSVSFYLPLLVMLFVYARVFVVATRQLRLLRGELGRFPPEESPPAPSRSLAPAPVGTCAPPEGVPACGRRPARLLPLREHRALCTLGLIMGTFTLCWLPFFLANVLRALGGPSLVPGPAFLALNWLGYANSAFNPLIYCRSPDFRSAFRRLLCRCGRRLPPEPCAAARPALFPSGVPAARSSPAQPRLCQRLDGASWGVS

| Structure (SMILES) | Ki ([1]; read-out: Ki) | Ki [2] | Ki [3] | also measured |
| --- | --- | --- | --- | --- |
| O=C1c2cccc3cccc(c23)C(=O)N1C1CCN(CC(O)COc2cccc3[nH]c4ccccc4c23)CC1 (configuration not stated) | 76 nM | 57 nM | 98 nM |  |
| OC(COc1cccc2[nH]c3ccccc3c12)CN1CCC(Cc2cccnc2)CC1 (configuration not stated) | 1 nM | 0.1 nM | 72 nM |  |
| CC(C)c1ccccc1OCC(O)CNC1CCN(C)CC1 (configuration not stated) | 89 nM | 17 nM | 1060 nM |  |
| O=C(c1ccccc1)C1CCN(CC(O)COc2cccc3[nH]c4ccccc4c23)CC1 (configuration not stated) | 16 nM | 0.2 nM | 230 nM |  |
| Cc1ccc(C(C)C)c(OCC(O)CN2CCN(CCN3C(=O)c4cccc5cccc(c45)C3=O)CC2)c1 (configuration not stated) |  | 110 nM | > 10000 nM | Ki ([1]; cho-k1): Not Active |
| C=CCc1ccccc1OCC(O)CN1CCN(CCN2C(=O)c3cccc4cccc(c34)C2=O)CC1 (configuration not stated) | 293 nM | 150 nM | 3100 nM |  |
| COc1cc2c3c(cccc3c1)C(=O)N(CC1CCN(CC(O)COc3cccc4[nH]c5ccccc5c34)CC1)C2=O (configuration not stated) | 0.1 nM | 8 nM | 410 nM |  |
| C=CCc1ccccc1OCC(O)CNC1CCN(C)CC1 (configuration not stated) | 260 nM | 2.4 nM | 6220 nM |  |
| C=CCc1ccccc1OCC(O)CN1CCOCC1 (configuration not stated) | 114 nM | 7 nM | 4960 nM |  |
| CC(C)c1ccccc1OCC(O)CN1CCC(CN2C(=O)c3ccccc3C2=O)CC1 (configuration not stated) | 720 nM | 17 nM | 1480 nM |  |
| CC(C)c1ccccc1OCC(O)CN1CCC(N2C(=O)c3cccc4cccc(c34)C2=O)CC1 (configuration not stated) | 240 nM | 13 nM | 3820 nM |  |
| CC(C)c1ccccc1OCC(O)CN1CCOCC1 (configuration not stated) | 12 nM | 1.2 nM | 1770 nM |  |
| O=C1c2cccc3cc(O)cc(c23)C(=O)N1CC1CCN(CC(O)COc2cccc3[nH]c4ccccc4c23)CC1 (configuration not stated) | 250 nM | 37 nM | 590 nM | IC50 [4]: 120 nM; EC50 [5]: 80 nM; Intrinsic activity [6]: 40%; EC50 [7]: 234 nM |
| CC(C)c1ccccc1OCC(O)CN1CCC(CN2C(=O)CCCC2=O)CC1 (configuration not stated) | 245 nM | 9 nM | 2900 nM |  |
| O=C(c1ccc(F)cc1)C1CCN(CC(O)COc2cccc3[nH]c4ccccc4c23)CC1 (configuration not stated) | 32 nM | 0.3 nM | 250 nM | IC50 [4]: 32 nM; solubility [8]: 180 µM (≈ 80.4 µg/mL); solubility [9]: 10 µM (≈ 4.47 µg/mL); Activity [10]: Active; CC50 [11]: 9000 nM; CC50 [12]: 19000 nM; Cmax [13]: 290 nM; half-life [14]: 7.5 h; EC50 [5]: 310 nM; Intrinsic activity [6]: 20%; EC50 [7]: 385 nM |
| C=CCc1ccccc1OCC(O)CN1CCC(CN2C(=O)CCCC2=O)CC1 (configuration not stated) | 440 nM | 80 nM | 11000 nM |  |
| COc1ccc(C(=O)C2CCN(CC(O)COc3cccc4[nH]c5ccccc5c34)CC2)cc1 (configuration not stated) | 13 nM | 0.2 nM | 9180 nM |  |

| Structure (SMILES) | Ki ([1]; read-out: Ki) | Ki [2] | Ki [3] | also measured |
| --- | --- | --- | --- | --- |
| COc1ccc(OCC(O)CN2CCC(CN3C(=O)c4cccc5cccc(c45)C3=O)CC2)c(C(C)(C)C)c1 (configuration not stated) | 530 nM | 300 nM | 3380 nM |  |
| Cc1ccc(C(C)C)c(OCC(O)CN2CCC(CN3C(=O)c4cccc5cccc(c45)C3=O)CC2)c1 (configuration not stated) | 1000 nM | 80 nM | 411 nM | IC50 [15]: 1470 nM; IC50 [16]: 1380 nM |
| C=CCc1ccccc1OCC(O)CN1CCC(CN2C(=O)c3cccc4cccc(c34)C2=O)CC1 (configuration not stated) | 80 nM |  | 409 nM | EC50 [7]: 2400 nM |
| CC(C)c1ccccc1OCC(O)CN1CCN(CCN2C(=O)c3cccc4cccc(c34)C2=O)CC1 (configuration not stated) | 740 nM | 70 nM | 1480 nM |  |
| O=C1c2cccc3cccc(c23)C(=O)N1CC1CCN(CC(O)COc2cccc3[nH]ccc23)CC1 (configuration not stated) | 27 nM | 120 nM | 1000 nM |  |
| O=C1c2cccc3cccc(c23)C(=O)N1CC1CCN(CC(O)COc2ccc3[nH]ccc3c2)CC1 (configuration not stated) | 4530 nM | 1260 nM | 8500 nM |  |
| COc1cc2c3c(cccc3c1)C(=O)N(CC1CCN(CC(O)COc3ccccc3C(C)C)CC1)C2=O (configuration not stated) | 209 nM | 38 nM | 698 nM |  |
| C=CCc1ccccc1OCC(O)CN1CCC(CN2C(=O)c3cccc4cc(OC)cc(c34)C2=O)CC1 (configuration not stated) | 300 nM | 78 nM | 1510 nM |  |
| COc1ccc(OCC(O)CNC2CCN(c3ncnc4scc(-c5ccccc5)c34)CC2)cc1 (configuration not stated) | > 10000 nM |  |  |  |
| COc1ccc(CC2CCN(CC(O)COc3cccc4[nH]c5ccccc5c34)CC2)cc1 (configuration not stated) | 3.4 nM | 0.2 nM | 455 nM |  |
| C=CCc1ccccc1OCC(O)CN1CCC(N2C(=O)c3cccc4cccc(c34)C2=O)CC1 (configuration not stated) | 1050 nM | 40 nM | 2340 nM |  |
| O=C1c2cccc3cccc(c23)C(=O)N1CC1CCN(CC(O)COc2cccc3[nH]c4ccccc4c23)CC1 (configuration not stated) | 7 nM | 3 nM | 225 nM |  |
| C=CCc1ccccc1OCC(O)CN1CCC(CN2C(=O)c3ccccc3C2=O)CC1 (configuration not stated) | 190 nM | 50 nM | 3400 nM |  |
| C=CCc1ccc(OCC(O)CN2CCC(CN3C(=O)c4cccc5cccc(c45)C3=O)CC2)c(OC)c1 (configuration not stated) | 1360 nM | 3290 nM | 3290 nM |  |
| C=CCc1ccccc1OCC(O)CN1CCC(CN2C(=O)c3cccc4cc(O)cc(c34)C2=O)CC1 (configuration not stated) | 170 nM | 135 nM | 2200 nM |  |
| CC(C)c1ccccc1OCC(O)CN1CCC(CN2C(=O)c3cccc4cccc(c34)C2=O)CC1 (configuration not stated) | 250 nM | 230 nM | 1030 nM |  |
| OC(COc1cccc2[nH]c3ccccc3c12)CN1CCC(Cc2ccccc2)CC1 (configuration not stated) | 14 nM | 0.5 nM | 230 nM |  |
